This note sets out measurements from US11613545B2, “Macrocyclic compound serving as Wee1 inhibitor and applications thereof” (WUXI BIOCITY BIOPHARMACEUTICS CO., LTD., priority 2017, dated 2023).

For orientation: IC50 means the midpoint of a concentration-inhibition curve. A low value points to inhibition by little substance. As a reminder, the efflux ratio is the permeability from basolateral to apical divided by that in the opposite direction, in the common usage. What is called bioavailability is the share of a dose that reaches the circulation, judged against a reference dose that is usually intravenous.

One data set addresses T1, Wee1 (Homo sapiens, UniProt P30291).
T1 construct: purchased Eurofins
Put plainly: In vitro enzymatic inhibitory activity, Wee1 kinase (Eurofins, [γ-33P]-ATP filter assay). Type of data set: biochemical. Particulars: 10 μM [γ-33P]-ATP, 40 min at room temperature. The method, then:
The experimental tests were conducted at Eurofins, and the results were provided by the company.
After adding the mixed solution of Mg^2+ and ATP, the reaction started and the reaction solution was incubated at room temperature for 40 min. 3% phosphate buffer was added to stop the reaction. 10 μL of the reaction solution was filtered on a continuous filter P30, washed three times with 75 mM phosphate buffer, once with methanol, and 5 minutes each time. After drying, the value was read by scintillation counting method.

The test system of a further data set is P-gp (MDR1). As to the kind of experiment: In vitro permeability test in MDR1-MDCK II cells (bidirectional transport). Type of data set: in vitro ADME, canine. Particulars: dog. An excerpt: (§1) The study used MDR1-MDCK II cells authorized by Piet Borst laboratory of the Netherlands Cancer Institute, which are a kind of Madin-Darby canine kidney cells transfected with human multi-drug resistance gene (MDR1). The cells can stably express the efflux transporter P glycoprotein (P-gp), so they are suitable for screening P-gp substrates or inhibitors, and predict that the compounds have high efflux barrier permeability such as duodenum, blood-brain barrier, hepatocyte nucleus and renal unit. We used the 5th to 35th generation MDR1-MDCK II cells for permeability study.
(§2) MDR1-MDCK II cells were cultured with α-MEM medium (α-Minimum Essential Media) under the conditions of 37±1° C., 5% CO2 and saturated relative humidity. After that, the cells were inoculated in a BD Transwell-96-well plate with an inoculation density of 2.3×10^5 cells/cm^2, and then the cells were placed in a carbon dioxide incubator for 4-7 days and used for transport experiments. The preparation method of α-MEM medium was as follows: the liquid nutrient base was prepared by dissolving powder (α-MEM powder from Gibco, Cat #: 11900) in pure water, and L-glutamine and NaHCO3 were added. 10% FBS (fetal bovine serum), 1% PS (dual antibiotic) and 1% NEAA were added to make it a complete medium when using.
(§3) Fenoterol and propranolol were tested at a concentration of 2 μM, administered unidirectionally (A-B direction), and duplicated in two wells.
(§4) The solution to be used was pre-incubated in a 37±1° C. water bath for 30 minutes. The dosing solution and the receiving solution were added to the corresponding well positions of the cell plate (75 and 250 μL for each top and bottom well, respectively) to start the bidirectional transport experiment. After loading, the cell plates were placed in an incubator at 37±1° C., 5% CO2 and saturated relative humidity for 150 minutes.
(§5) After vortexing, all samples were centrifuged at 3,220 g for 10 minutes. An appropriate volume of supernatant was transferred to the sample analysis plate, and analyzed by LC/MS/MS. If samples were not analyzed immediately after sealing, they were store at 2-8° C.
(§6) After the transport experiment was completed, the integrity of MDR1-MDCK II cells was tested using Lucifer Yellow Rejection Assay. After incubating the fluorescent yellow solution for 30 minutes, the fluorescent yellow samples were collected, and the relative fluorescence unit (RFU) of the fluorescent yellow in the sample was detected at 425/528 nm (excitation/emission) by the 2e plate reader.
(§7) Semi-quantitative analysis was used for the test products AZD1775 (or the compound of the present invention), the control products fenoterol, propranolol and digoxin. The ratio of the peak area of the analyte to the internal standard was used as the concentration of the reference substance.

A further data set deals with P-gp (human MDR1). The description is as above. Type of data set: in vitro ADME, canine. Particulars: dog; for Papp A→B at 150 min, 2 μM: A to B, read-out: Penetration rate A to B; for Papp B→A at 150 min, 2 μM: B to A, read-out: Penetration rate B to A.
Text: as §1, §2, §3, §4, §5, §6, §7

Data set [1] can be described thus: Pharmacokinetic evaluation in plasma after single intravenous and single oral administration. Type of data set: in vivo. Particulars: mouse, female Balb/c Nude mice. The procedure: Twelve mice (provided by Lingchang Biotech) were randomly divided into two groups, 6 females in each group, and samples were collected by cross blood collection. […] In the intravenous group, plasma samples were collected at 9 time points of 5 minutes, 15 minutes, 30 minutes, 1 hour, 2 hours, 4 hours, 6 hours, 8 hours, and 24 hours after administration; in the oral group, plasma samples were collected at 8 time points of 15 minutes, 30 minutes, 1 hour, 2 hours, 4 hours, 6 hours, 8 hours, and 24 hours after administration.

Data set [2] has as its system human colon cancer LoVo cell subcutaneous xenograft tumor. As to the kind of experiment: In vivo pharmacodynamic study, LoVo subcutaneous xenograft tumor model. Also on record: species or system BALB/c nude mice. Particulars: 40 mg/kg twice daily, after administration for 16 days. The method, then: (1) In vivo pharmacodynamic study of the compounds on human colon cancer LoVo cell subcutaneous xenograft tumor BALB/c nude mouse model
Experimental method: The selected experimental animal (provided by Shanghai Xipu'er-bikai Experimental Animal Co., Ltd.) were BALB/c nude mice, 6-8 weeks old, weighing 18-22 grams.
Human colon cancer LoVo cells were cultured in monolayer in vitro. The culture conditions were Ham's F-12 medium containing 10% fetal bovine serum, 100 U/mL penicillin, 100 μg/mL streptomycin and 2 mM glutamine, 37° C., 5% CO2 culture. Conventional digestion treatment with trypsin-EDTA was performed twice a week for passaging. When the cell saturation was 80%-90%, the cells were collected, counted, and inoculated. 0.1 mL (10×10^6) LoVo cells were subcutaneously inoculated into the right back of each nude mouse. When the average tumor volume reached 213 mm^3, they were divided into groups and the drug administration was started. Dosage: 40 mg/kg twice daily. The experimental index is to investigate whether the tumor growth is inhibited, delayed or cured. The diameter of the tumor was measured with vernier calipers twice a week. The calculation formula of tumor volume is: V=0.5a×b^2, a and b represent the long and short diameters of the tumor, respectively.
The antitumor efficacy of the compound was evaluated by TGI (%) or relative tumor proliferation rate T/C (%). […]

Data set [3] relates to human pancreatic cancer BxPC-3 subcutaneously transplanted tumor. Put plainly: In vivo pharmacodynamic study, BxPC-3 subcutaneously transplanted tumor model. Also on record: species or system BALB/c nude mice. Particulars: BxPC-3 xenograft, 25 mg/kg once a day, after administration for 27 days. The procedure:
(2) In vivo pharmacodynamic study of the compound on human pancreatic cancer BxPC-3 BALB/c nude mouse subcutaneously transplanted tumor model
Experimental method: The selected experimental animal was BALB/c nude nude mice, 6-8 weeks old, weighing 18-22 grams.
The 10th generation of BxPC-3 cells were cultured in monolayer in vitro. The culture conditions were RPMI 1640 medium (manufacturer: gibco, article number: 22400-089) containing 10% fetal bovine serum, 100 U/mL penicillin and 100 μg/mL streptomycin, 37° C. 5% CO2 culture, passage was performed for 4 times. The passaging method was conventional digestion treatment with trypsin-EDTA twice a week. When the cell saturation reached 80%-90%, the cells were digested with trypsin-EDTA, counted, and resuspended in PBS at a density of 5×10^7 cells/mL. Each animal was inoculated with 0.1 mL (5×10^6) BxPC-3 cells in the right back. When the average tumor volume reached 153 mm^3, they were randomly divided into groups according to the tumor volume and the drug administration was started. Dosage: 25 mg/kg, once a day.
The experimental index is to investigate whether the tumor growth is inhibited, delayed or cured. The diameter of the tumor was measured with vernier calipers twice a week. The antitumor efficacy of the compound was evaluated by TGI (%) or relative tumor proliferation rate T/C (%). TGI (%) reflects the tumor growth inhibition rate. […]

For data set [4], the system named is CT26 mouse colon cancer transplanted tumor. Put plainly: In vivo anti-tumor efficacy, CT26 colon cancer transplanted tumor model. Further details: species or system BALB/c nude mice. Particulars: 30 mg/kg twice daily, after administration for 18 days. The method, then: (3) In vivo anti-tumor efficacy of the compounds on CT26 mouse colon cancer animal transplanted tumor model
Experimental method: The selected experimental animal was BALB/c nude mice, 7 weeks old, weighing 16-20 grams, female.
Cells: Mouse colon cancer CT26 cells (the Cell Bank of Typical Culture Preservation Committee of the Chinese Academy of Sciences) were cultured in monolayer in vitro. The culture conditions were RPMI-1640 medium containing 10% fetal bovine serum and 37° C. 5% CO2 incubator. Conventional digestion treatment with trypsin-EDTA was performed twice a week for passaging. When the cells were in the exponential growth phase and the saturation was 80%-90%, the cells were collected, counted, and inoculated. 0.1 mL DPBS (containing 3×10^5 CT26 cells) was subcutaneously inoculated into the right back of each mouse. When the average tumor volume reached 50-70 mm^3, randomized administration was performed according to tumor volume. Dosage: 30 mg/kg twice daily.
The experimental index is to investigate whether the tumor growth is inhibited, delayed or cured. The diameter of the tumor was measured with vernier calipers twice a week. The antitumor efficacy of the compound was evaluated by TGI (%) or relative tumor proliferation rate T/C (%). TGI (%) reflects the tumor growth inhibition rate.
After the final administration for 18 days, the experimental results are as follows: […]

T1 sequence (P30291 whole entry): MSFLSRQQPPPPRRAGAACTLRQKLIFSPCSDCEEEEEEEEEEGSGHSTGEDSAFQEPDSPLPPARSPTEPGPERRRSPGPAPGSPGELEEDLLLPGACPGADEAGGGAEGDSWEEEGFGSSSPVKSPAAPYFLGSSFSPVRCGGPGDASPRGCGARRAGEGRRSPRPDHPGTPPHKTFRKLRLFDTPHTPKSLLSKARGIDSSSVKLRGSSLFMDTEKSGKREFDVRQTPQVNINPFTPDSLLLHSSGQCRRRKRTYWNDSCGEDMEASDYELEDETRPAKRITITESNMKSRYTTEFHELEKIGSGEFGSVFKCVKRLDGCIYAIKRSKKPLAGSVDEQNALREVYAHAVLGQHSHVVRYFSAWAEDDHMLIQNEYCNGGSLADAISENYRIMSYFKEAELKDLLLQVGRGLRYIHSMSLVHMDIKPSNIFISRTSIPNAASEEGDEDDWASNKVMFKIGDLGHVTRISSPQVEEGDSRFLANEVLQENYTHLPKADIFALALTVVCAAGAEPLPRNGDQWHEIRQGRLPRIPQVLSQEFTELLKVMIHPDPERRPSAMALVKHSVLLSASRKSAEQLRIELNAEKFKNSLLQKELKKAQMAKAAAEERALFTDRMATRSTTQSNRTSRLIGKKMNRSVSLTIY

The molecule `CN1CCN(c2ccc(Nc3ncc4c(=O)n5n(c4n3)-c3cccc(n3)C(C)(O)CC/C=C\C5)cc2)CC1` (single isomer, unassigned) [Compound 1] showed an IC50 against Wee1 of 29 nM. Moreover, the efflux ratio at 150 min, 2 μM with P-gp (MDR1) stood at 3.82. Further, the Papp A→B at 150 min, 2 μM with P-gp (human MDR1) worked out at 4.55 ×10⁻⁶ cm/s. In the data set with P-gp (human MDR1), the Papp B→A at 150 min, 2 μM was 17.4 ×10⁻⁶ cm/s. In addition, the clearance in data set [1] (1 mg/kg intravenous, 10 mg/kg oral study, read-out: Clearance rate) was 33.5 mL/min/kg. Besides, the AUC in data set [1] (1 mg/kg intravenous, 10 mg/kg oral study, read-out: Concentration integral AUC) came to 6.04 µM·h. In data set [1] (1 mg/kg intravenous, 10 mg/kg oral study, read-out: Half-life T1/2 (converted)), the half-life was 1.69 h. The bioavailability in data set [1] (po, 10 mg/kg by gavage vs 1 mg/kg intravenous, read-out: Bioavailability F) is 62.4%. Further, the results for the “TGI (%)” value in data set [2], in data set [3] and in data set [4] were 84.74%, 73.3% and 93.38%, respectively.

For `C=CCn1c(=O)c2cnc(Nc3ccc(N4CCN(C)CC4)cc3)nc2n1-c1cccc(C(C)(C)O)n1` [AZD1775, reference compound], the Papp A→B at 150 min, 2 μM with P-gp (human MDR1) was determined as 2.83 ×10⁻⁶ cm/s. Besides, the Papp B→A at 150 min, 2 μM with P-gp (human MDR1) amounted to 29.3 ×10⁻⁶ cm/s. Besides, the “TGI (%)” value in data set [2] was 26.73%; in data set [3], 24.3%; in data set [4], 66.43%.
